# Structures can show the parent of a compound that is named as a salt.
# Molecular target: T1, h5-HT transporter (Homo sapiens, UniProt P31645)
# T1 construct: Human platelet membranes (Oceanix Biosciences Corporation, Hanover, Md., USA) were thawed; tissue Oceanix Biosciences Corporation; host or cells: human platelet membranes
# Experiment: Radioligand binding experiment for 5-HT transporter ([3H]paroxetine)
# Details: human platelet membranes, [3H]paroxetine 0.5 nM
# Outline: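 Competition binding on human platelet membranes (50-100 μg protein) in 50 mM Tris-HCl, 120 mM NaCl, 5 mM KCl with 0.5 nM [3H]paroxetine, 60 min at 25 °C, filtration and scintillation counting. Non-specific binding defined with 1 μM imipramine; pIC50 from nonlinear sigmoidal fits of percent total binding.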
# T1 sequence (P31645 whole entry): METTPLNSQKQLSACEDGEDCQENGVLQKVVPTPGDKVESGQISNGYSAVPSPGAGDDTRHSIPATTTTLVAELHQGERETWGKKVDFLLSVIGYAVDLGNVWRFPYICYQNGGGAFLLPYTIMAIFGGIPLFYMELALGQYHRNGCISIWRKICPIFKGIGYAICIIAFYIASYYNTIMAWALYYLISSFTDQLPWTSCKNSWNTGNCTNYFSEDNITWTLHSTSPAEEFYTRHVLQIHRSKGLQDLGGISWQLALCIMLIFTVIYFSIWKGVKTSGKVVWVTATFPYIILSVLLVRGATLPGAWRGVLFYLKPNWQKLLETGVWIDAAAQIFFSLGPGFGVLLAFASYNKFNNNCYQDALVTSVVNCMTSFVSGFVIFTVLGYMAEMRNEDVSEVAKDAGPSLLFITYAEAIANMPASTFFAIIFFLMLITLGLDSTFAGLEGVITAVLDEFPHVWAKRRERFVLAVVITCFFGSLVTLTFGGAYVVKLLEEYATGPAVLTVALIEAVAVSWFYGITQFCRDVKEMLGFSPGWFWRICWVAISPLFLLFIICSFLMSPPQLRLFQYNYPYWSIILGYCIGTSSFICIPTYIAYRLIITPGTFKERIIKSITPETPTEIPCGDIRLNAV
row,IC50 [nM],SMILES
1,316,CC(=Cc1ccccc1)CN1CCN(CC2ON=C3c4ccc(Nc5ccc(C)c(C)c5)cc4OCC32)CC1 (centres unmarked) [Compound 46]
2,50.1,CC(=O)Nc1ccc2c(c1)OCC1C2=NOC1CN1CCN(C/C(C)=C/c2ccccc2)CC1 (centres unmarked) [Compound 6]
3,31.6,C/C(=C\CN1CCN(CC2ON=C3c4cc5c(cc4OCC32)NCCO5)CC1)c1ccccc1 (centres unmarked) [Compound 91]
4,25.1,C=CC(=O)Nc1ccc2c(c1)OCC1C2=NOC1CN1CCN(CC(C)=Cc2ccccc2)CC1 (centres unmarked) [Compound 54]
5,20,CC(=Cc1ccccc1)CN1CCN(CC2ON=C3c4ccc(NC(=O)NC(C)(C)C)cc4OCC32)CC1 (centres unmarked) [Compound 61]
6,25.1,CC(=Cc1ccc(F)cc1)CN1CCN(CC2ON=C3c4ccc(N5CCOCC5)cc4OCC32)CC1 (centres unmarked) [Compound 84]
7,100,CC(=Cc1ccc(F)cc1)CN1CCN(CC2ON=C3c4ccc(N5CCCC5)cc4OCC32)CC1 (centres unmarked) [Compound 70]
8,251,CC(=Cc1ccccc1)CN1CCN(CC2ON=C3c4ccc(NC(=O)Nc5ccccc5)cc4OCC32)CC1 (centres unmarked) [Compound 64]
9,631,COc1ccc(Nc2ccc3c(c2)OCC2C3=NOC2CN2CCN(CC(C)=Cc3ccc(F)cc3)CC2)cc1 (centres unmarked) [Compound 43]
10,39.8,C/C(=C\c1ccc(F)cc1)CN1CCN(CC2ON=C3c4ccc(NS(=O)(=O)c5ccc(C)cc5)cc4OCC32)CC1 (centres unmarked) [Compound 3]
11,79.4,CC(=Cc1ccccc1)CN1CCN(CC2ON=C3c4ccc(Nc5ccccc5C)cc4OCC32)CC1 (centres unmarked) [Compound 45]
12,126,Clc1ccc(CN2CCN(CC3ON=C4c5cc6c(cc5OCC43)NCCO6)CC2)cc1 (centres unmarked) [Compound 94]
13,31.6,COc1ccc(NC(=O)Nc2ccc3c(c2)OCC2C3=NOC2CN2CCN(C/C(C)=C/c3ccccc3)CC2)cc1OC (centres unmarked) [Compound 7]
14,3.98,C/C(=C\c1cccc(F)c1)CN1CCN(CC2ON=C3c4cc5c(cc4OCC32)NCCO5)CC1 (centres unmarked) [Compound 89]
15,5.01,COc1cc2c(cc1NCCN(C)C)OCC1C2=NOC1CN1CCN(CC(C)=Cc2ccc(F)cc2)CC1 (centres unmarked) [Compound 24]
16,15.8,CC(=Cc1ccccc1)CN1CCN(CC2ON=C3c4ccc(NC(=O)C(C)(C)C)cc4OCC32)CC1 (centres unmarked) [Compound 50]

# Test system: not given
# Experiment: not given
# Details: not given
row,melting point [°C],SMILES
1,138.9 to 151.3,CC(=Cc1ccccc1)CN1CCN(CC2ON=C3c4ccc(Nc5ccc(C)c(C)c5)cc4OCC32)CC1 (centres unmarked) [Compound 46]
2,112.1 to 126.7,CC(=O)Nc1ccc2c(c1)OCC1C2=NOC1CN1CCN(C/C(C)=C/c2ccccc2)CC1 (centres unmarked) [Compound 6]
3,130.4 to 146.4,C/C(=C\CN1CCN(CC2ON=C3c4cc5c(cc4OCC32)NCCO5)CC1)c1ccccc1 (centres unmarked) [Compound 91]
4,136.1 to 172.9,C=CC(=O)Nc1ccc2c(c1)OCC1C2=NOC1CN1CCN(CC(C)=Cc2ccccc2)CC1 (centres unmarked) [Compound 54]
5,98.4 to 113.5,CC(=Cc1ccccc1)CN1CCN(CC2ON=C3c4ccc(NC(=O)NC(C)(C)C)cc4OCC32)CC1 (centres unmarked) [Compound 61]
6,179.2 to 188.8,CC(=Cc1ccc(F)cc1)CN1CCN(CC2ON=C3c4ccc(N5CCOCC5)cc4OCC32)CC1 (centres unmarked) [Compound 84]
7,194.7 to 204.9,CC(=Cc1ccc(F)cc1)CN1CCN(CC2ON=C3c4ccc(N5CCCC5)cc4OCC32)CC1 (centres unmarked) [Compound 70]
8,180.3 to 181.6,CC(=Cc1ccccc1)CN1CCN(CC2ON=C3c4ccc(NC(=O)Nc5ccccc5)cc4OCC32)CC1 (centres unmarked) [Compound 64]
9,131.7 to 134.5,COc1ccc(Nc2ccc3c(c2)OCC2C3=NOC2CN2CCN(CC(C)=Cc3ccc(F)cc3)CC2)cc1 (centres unmarked) [Compound 43]
10,177 to 194.1,C/C(=C\c1ccc(F)cc1)CN1CCN(CC2ON=C3c4ccc(NS(=O)(=O)c5ccc(C)cc5)cc4OCC32)CC1 (centres unmarked) [Compound 3]
11,133.3 to 148.9,CC(=Cc1ccccc1)CN1CCN(CC2ON=C3c4ccc(Nc5ccccc5C)cc4OCC32)CC1 (centres unmarked) [Compound 45]
12,186.5 to 198,Clc1ccc(CN2CCN(CC3ON=C4c5cc6c(cc5OCC43)NCCO6)CC2)cc1 (centres unmarked) [Compound 94]
13,202.2 to 207.1,COc1ccc(NC(=O)Nc2ccc3c(c2)OCC2C3=NOC2CN2CCN(C/C(C)=C/c3ccccc3)CC2)cc1OC (centres unmarked) [Compound 7]
14,145.4 to 153.1,C/C(=C\c1cccc(F)c1)CN1CCN(CC2ON=C3c4cc5c(cc4OCC32)NCCO5)CC1 (centres unmarked) [Compound 89]
15,157.7 to 159.9,COc1cc2c(cc1NCCN(C)C)OCC1C2=NOC1CN1CCN(CC(C)=Cc2ccc(F)cc2)CC1 (centres unmarked) [Compound 24]
16,183.4 to 190.2,CC(=Cc1ccccc1)CN1CCN(CC2ON=C3c4ccc(NC(=O)C(C)(C)C)cc4OCC32)CC1 (centres unmarked) [Compound 50]
17,199 to 235.5,CNCCNc1ccc2c(c1)OCC1C2=NOC1CN1CCN(CC(C)=Cc2ccc(F)cc2)CC1 (centres unmarked) (as salt: HCl) [Compound 20]

# Molecular target: T2, hα2C receptor (Homo sapiens, UniProt P18825)
# T2 construct: expressed in transfected cells; host or cells: CHO cells
# T2 sequence (P18825 1-462): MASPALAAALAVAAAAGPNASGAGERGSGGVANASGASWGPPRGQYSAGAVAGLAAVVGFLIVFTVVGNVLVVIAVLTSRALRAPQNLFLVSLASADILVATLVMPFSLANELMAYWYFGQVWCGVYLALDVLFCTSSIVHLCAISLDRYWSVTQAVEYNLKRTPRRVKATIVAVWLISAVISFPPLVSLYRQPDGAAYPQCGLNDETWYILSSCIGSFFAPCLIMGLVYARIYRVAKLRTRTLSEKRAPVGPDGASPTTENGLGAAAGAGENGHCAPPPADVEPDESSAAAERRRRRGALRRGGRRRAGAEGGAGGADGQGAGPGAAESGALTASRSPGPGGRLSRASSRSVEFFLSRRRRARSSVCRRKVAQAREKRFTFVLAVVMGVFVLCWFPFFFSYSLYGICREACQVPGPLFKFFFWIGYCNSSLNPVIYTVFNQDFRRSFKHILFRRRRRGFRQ
# Experiment: Radioligand binding experiment for α2C-adrenergic receptor ([3H]-raulwolscine)
# Details: CHO cell membranes with human α2C receptor, [3H]raulwolscine 1 nM; read-out: pIC50 α2C (converted)
# Outline: (§1)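 Membranes from CHO cells stably expressing human α2A or α2C receptors (sodium butyrate-induced) incubated with 1 nM [3H]raulwolscine in 25 mM glycylglycine pH 8.0 for 60 min at 25° C, then filtered. Non-specific binding defined with 1 μM oxymetazoline (α2A) or 1 μM spiroxatrine (α2C); pIC50 from sigmoidal competition curves.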
row,IC50 [nM],SMILES
1,39.8,CC(=Cc1ccccc1)CN1CCN(CC2ON=C3c4ccc(Nc5ccc(C)c(C)c5)cc4OCC32)CC1 (centres unmarked) [Compound 46]
2,2.51,CC(=O)Nc1ccc2c(c1)OCC1C2=NOC1CN1CCN(C/C(C)=C/c2ccccc2)CC1 (centres unmarked) [Compound 6]
3,1.58,C/C(=C\CN1CCN(CC2ON=C3c4cc5c(cc4OCC32)NCCO5)CC1)c1ccccc1 (centres unmarked) [Compound 91]
4,0.794,C=CC(=O)Nc1ccc2c(c1)OCC1C2=NOC1CN1CCN(CC(C)=Cc2ccccc2)CC1 (centres unmarked) [Compound 54]
5,2,CC(=Cc1ccccc1)CN1CCN(CC2ON=C3c4ccc(NC(=O)NC(C)(C)C)cc4OCC32)CC1 (centres unmarked) [Compound 61]
6,1.26,CC(=Cc1ccc(F)cc1)CN1CCN(CC2ON=C3c4ccc(N5CCOCC5)cc4OCC32)CC1 (centres unmarked) [Compound 84]
7,7.94,CC(=Cc1ccc(F)cc1)CN1CCN(CC2ON=C3c4ccc(N5CCCC5)cc4OCC32)CC1 (centres unmarked) [Compound 70]
8,15.8,CC(=Cc1ccccc1)CN1CCN(CC2ON=C3c4ccc(NC(=O)Nc5ccccc5)cc4OCC32)CC1 (centres unmarked) [Compound 64]
9,126,COc1ccc(Nc2ccc3c(c2)OCC2C3=NOC2CN2CCN(CC(C)=Cc3ccc(F)cc3)CC2)cc1 (centres unmarked) [Compound 43]
10,31.6,C/C(=C\c1ccc(F)cc1)CN1CCN(CC2ON=C3c4ccc(NS(=O)(=O)c5ccc(C)cc5)cc4OCC32)CC1 (centres unmarked) [Compound 3]
11,20,CC(=Cc1ccccc1)CN1CCN(CC2ON=C3c4ccc(Nc5ccccc5C)cc4OCC32)CC1 (centres unmarked) [Compound 45]
12,31.6,Clc1ccc(CN2CCN(CC3ON=C4c5cc6c(cc5OCC43)NCCO6)CC2)cc1 (centres unmarked) [Compound 94]
13,5.01,COc1ccc(NC(=O)Nc2ccc3c(c2)OCC2C3=NOC2CN2CCN(C/C(C)=C/c3ccccc3)CC2)cc1OC (centres unmarked) [Compound 7]
14,1,C/C(=C\c1cccc(F)c1)CN1CCN(CC2ON=C3c4cc5c(cc4OCC32)NCCO5)CC1 (centres unmarked) [Compound 89]
15,1.58,COc1cc2c(cc1NCCN(C)C)OCC1C2=NOC1CN1CCN(CC(C)=Cc2ccc(F)cc2)CC1 (centres unmarked) [Compound 24]
16,1,CC(=Cc1ccccc1)CN1CCN(CC2ON=C3c4ccc(NC(=O)C(C)(C)C)cc4OCC32)CC1 (centres unmarked) [Compound 50]

# Molecular target: T3, hα2A receptor (Homo sapiens, UniProt P08913)
# T3 construct: expressed in transfected cells; host or cells: CHO cells
# T3 sequence (P08913 1-465): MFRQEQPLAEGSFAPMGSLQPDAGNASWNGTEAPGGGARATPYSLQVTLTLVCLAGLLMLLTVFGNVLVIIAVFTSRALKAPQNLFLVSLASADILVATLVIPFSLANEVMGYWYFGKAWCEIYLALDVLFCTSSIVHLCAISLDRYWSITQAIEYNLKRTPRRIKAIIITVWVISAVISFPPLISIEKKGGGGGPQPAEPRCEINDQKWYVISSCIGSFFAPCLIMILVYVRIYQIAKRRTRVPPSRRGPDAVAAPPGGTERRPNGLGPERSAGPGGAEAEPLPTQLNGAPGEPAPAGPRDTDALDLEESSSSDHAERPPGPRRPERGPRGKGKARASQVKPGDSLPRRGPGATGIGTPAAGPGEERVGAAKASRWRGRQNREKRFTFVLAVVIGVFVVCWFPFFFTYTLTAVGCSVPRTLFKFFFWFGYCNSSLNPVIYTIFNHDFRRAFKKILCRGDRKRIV
# Experiment: Radioligand binding experiment for α2A-adrenergic receptor ([3H]-raulwolscine)
# Details: CHO cell membranes with human α2A receptor, [3H]raulwolscine 1 nM; read-out: pIC50 α2A (converted)
# Outline: as §1
row,IC50 [nM],SMILES
1,63.1,CC(=Cc1ccccc1)CN1CCN(CC2ON=C3c4ccc(Nc5ccc(C)c(C)c5)cc4OCC32)CC1 (centres unmarked) [Compound 46]
2,3.16,CC(=O)Nc1ccc2c(c1)OCC1C2=NOC1CN1CCN(C/C(C)=C/c2ccccc2)CC1 (centres unmarked) [Compound 6]
3,6.31,C/C(=C\CN1CCN(CC2ON=C3c4cc5c(cc4OCC32)NCCO5)CC1)c1ccccc1 (centres unmarked) [Compound 91]
4,1.58,C=CC(=O)Nc1ccc2c(c1)OCC1C2=NOC1CN1CCN(CC(C)=Cc2ccccc2)CC1 (centres unmarked) [Compound 54]
5,7.94,CC(=Cc1ccccc1)CN1CCN(CC2ON=C3c4ccc(NC(=O)NC(C)(C)C)cc4OCC32)CC1 (centres unmarked) [Compound 61]
6,6.31,CC(=Cc1ccc(F)cc1)CN1CCN(CC2ON=C3c4ccc(N5CCOCC5)cc4OCC32)CC1 (centres unmarked) [Compound 84]
7,12.6,CC(=Cc1ccc(F)cc1)CN1CCN(CC2ON=C3c4ccc(N5CCCC5)cc4OCC32)CC1 (centres unmarked) [Compound 70]
8,25.1,CC(=Cc1ccccc1)CN1CCN(CC2ON=C3c4ccc(NC(=O)Nc5ccccc5)cc4OCC32)CC1 (centres unmarked) [Compound 64]
9,398,COc1ccc(Nc2ccc3c(c2)OCC2C3=NOC2CN2CCN(CC(C)=Cc3ccc(F)cc3)CC2)cc1 (centres unmarked) [Compound 43]
10,79.4,C/C(=C\c1ccc(F)cc1)CN1CCN(CC2ON=C3c4ccc(NS(=O)(=O)c5ccc(C)cc5)cc4OCC32)CC1 (centres unmarked) [Compound 3]
11,20,CC(=Cc1ccccc1)CN1CCN(CC2ON=C3c4ccc(Nc5ccccc5C)cc4OCC32)CC1 (centres unmarked) [Compound 45]
12,316,Clc1ccc(CN2CCN(CC3ON=C4c5cc6c(cc5OCC43)NCCO6)CC2)cc1 (centres unmarked) [Compound 94]
13,15.8,COc1ccc(NC(=O)Nc2ccc3c(c2)OCC2C3=NOC2CN2CCN(C/C(C)=C/c3ccccc3)CC2)cc1OC (centres unmarked) [Compound 7]
14,3.98,C/C(=C\c1cccc(F)c1)CN1CCN(CC2ON=C3c4cc5c(cc4OCC32)NCCO5)CC1 (centres unmarked) [Compound 89]
15,25.1,COc1cc2c(cc1NCCN(C)C)OCC1C2=NOC1CN1CCN(CC(C)=Cc2ccc(F)cc2)CC1 (centres unmarked) [Compound 24]
16,3.16,CC(=Cc1ccccc1)CN1CCN(CC2ON=C3c4ccc(NC(=O)C(C)(C)C)cc4OCC32)CC1 (centres unmarked) [Compound 50]

# Reference: US7265103B2, “Substituted amino isoxazoline derivatives and their use as anti-depressants” (Janssen Pharmaceutica NV., priority 2002, dated 2007)
